# US20220091128A1, “SYSTEM AND METHOD FOR LIGAND THERMAL ANALYSIS” (Portland State University, priority 2019, published 2022)
# Where two headings read alike, the source gives them in different places.
# Columns and labels:
# HSA [1] = biological target: T1, HSA (Homo sapiens, UniProt P02768); design: purchased Sigma Aldrich (St. Louis, Mo.); conditions: cited from earlier work; for Kd: binding to HSA, read-out: Average Literature KD; for reported HSA binding activity: literature report
# HSA [2] = biological target: T1, HSA; assay: Drug screening: HSA binding constants from DSC thermograms; conditions: for Measured HSA binding (cell spanning the measured KD columns; same in text): result in words
# Method: Ligand solubilization: Stock solutions of aqueous insoluble ligands in organic solvents were pipetted into microcentrifuge tubes to yield a desired amount of drug for a 1 mL solution. The microcentrifuge tubes were placed into a vacuum concentrator (Savant SpeedVac Model SC100), and the organic solvents were evaporated, resulting in solid drug in the tube. To each tube, HSA is added at a predetermined concentration with standard buffer to provide a 1 mL working solution.
# In total binding of 28 drug compounds to HSA was examined by obtaining thermograms.
# [3] = biological target: T2, human serum albumin (HSA) (Homo sapiens, UniProt P02768); assay: DSC thermograms of HSA with ligand (single-ligand titration); format: binding
# T2 construct: purchased Sigma Aldrich (St. Louis, Mo.)
# Method: Chemicals and reagents: Plasma and highly pure plasma proteins are sourced from commercial suppliers. Standard reagents are sourced from commercial suppliers. Samples are prepared in standard phosphate-buffered saline (PBS) buffer. In some examples, human plasma and serum albumin were purchased from Sigma Aldrich (St. Louis, Mo.) and received as lyophilized powder. Plasma was product number: P9523, lot number: SLBT0202. […] In vivo, the standard state of HSA is most certainly bound to some extent by fatty acids. Plasma and HSA stock solutions were prepared by re-suspending the appropriate amount of powder in buffer. Samples were prepared by diluting stock solutions to a final concentration of 1.5-2.0 mg/mL.
# Protein concentration was approximately 2 mg/ml.
# In a DSC melting experiment, the supplemental power supplied to the sample cell (in μW) necessary to keep the sample temperature equal to the reference temperature is continually monitored. […] Supplemental power is directly related to the molar heat capacity at constant pressure, ΔCp. Curves of ΔCp versus T provide an evaluation of the thermodynamic enthalpy. To enable direct comparisons in some cases, power (μW) versus T plots (instead of ΔCp versus T curves) were used for the following reason.
# Analysis of DSC data was performed using the Nanoanalyze software package, version 3.7.5, provided by T.A. Instruments. […]
# From the thermograms, semi-quantitative evaluations of the thermodynamic parameters ΔHcal, ΔScal and ΔGcal(37° C.) were obtained at each ligand concentration.
# These curves were constructed from titrations of DM1 with HSA. The Tm and ΔGcal(37° C.) were evaluated. The values were normalized against standard HSA and plotted versus ligand concentration to provide the dose curves in FIG. 20A (Tm) and FIG. 20B (ΔGcal(37° C.)).
# Natural HSA samples were prepared at pH 6.0 and pH 8.0 and examined by DSC. […] From DSC melting curves thermodynamic parameters for HSA/ligand mixtures were evaluated.
# human plasma = assay: DSC thermograms of plasma with ligand; format: binding
# [4] = Average Measured KD, binding to HSA; single value or value marked 1)
# [5] = Measured KD From TM, binding to HSA; single value or value marked 1)
# [6] = Measured KD from ΔG^037, binding to HSA; single value or value marked 1)
# [7] = read-out: Average Measured KD; binding to HSA; single value or value marked 1)
# [8] = read-out: Measured KD From TM; binding to HSA; single value or value marked 1)
# [9] = read-out: Measured KD from ΔG^037; binding to HSA; single value or value marked 1)
# T1 sequence (P02768 25-609): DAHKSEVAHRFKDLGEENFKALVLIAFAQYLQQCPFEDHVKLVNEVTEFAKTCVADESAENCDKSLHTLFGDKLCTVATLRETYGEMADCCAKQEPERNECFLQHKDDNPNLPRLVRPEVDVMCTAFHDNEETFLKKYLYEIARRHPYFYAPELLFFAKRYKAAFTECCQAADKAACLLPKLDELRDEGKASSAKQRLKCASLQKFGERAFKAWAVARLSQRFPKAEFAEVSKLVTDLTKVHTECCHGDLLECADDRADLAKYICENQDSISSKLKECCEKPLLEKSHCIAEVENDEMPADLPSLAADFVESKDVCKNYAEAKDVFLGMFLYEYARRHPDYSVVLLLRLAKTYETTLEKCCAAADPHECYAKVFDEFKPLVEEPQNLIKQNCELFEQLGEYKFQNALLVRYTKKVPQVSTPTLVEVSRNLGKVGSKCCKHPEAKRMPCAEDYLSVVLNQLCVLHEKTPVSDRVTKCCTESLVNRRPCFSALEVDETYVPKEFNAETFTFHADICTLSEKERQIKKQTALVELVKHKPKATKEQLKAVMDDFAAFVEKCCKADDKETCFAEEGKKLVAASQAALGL
# T2 sequence (P02768 25-609): as above
SMILES,Kd (HSA [1]) [µM],Kd (HSA [2]; [4]) [µM],Kd (HSA [2]; [5]) [µM],Kd (HSA [2]; [6]) [µM],other results
"C[C@H](CS)C(=O)N1CCC[C@H]1C(=O)O [Captopril (CAP), Captopril]",192,3.75,5.44,2.05,–
"CCCCCc1cc(O)c2c(c1)OC(C)(C)[C@@H]1CCC(C)=C[C@@H]21 [Δ9-tetrahydrocannabinol (THC), Δ9-tetrahydrocannabinol]",≤ 0.1,–,–,–,Kd (HSA [2]; [7]): 0.035 µM; Kd (HSA [2]; [8]): 0.025 µM; Kd (HSA [2]; [9]): 0.048 µM
"CC(NC(C)(C)C)C(=O)c1cccc(Cl)c1 (stereo not drawn) [Bupropion (BPR), Bupropion]",172,0.25,0.28,0.21,"Kd (HSA [2]; Average Measured KD, binding to HSA; second value marked 2)): 19.5 µM; Kd (HSA [2]; Measured KD From TM, binding to HSA; second value marked 2)): 28.8 µM; Kd (HSA [2]; Measured KD from ΔG^037, binding to HSA; second value marked 2)): 10.2 µM"
CNC[C@H](O)[C@@H](O)[C@H](O)[C@H](O)CO.CNC[C@H](O)[C@@H](O)[C@H](O)[C@H](O)CO.O=C([O-])CN(CCN(CC(=O)[O-])CC(=O)O)CCN(CC(=O)O)C(COCc1ccccc1)C(=O)[O-].[Gd+3] (stereo not drawn) [Multihance (MH)],1950,–,–,–,Kd (HSA [2]; [7]): 1340 µM; Kd (HSA [2]; [8]): 1380 µM; Kd (HSA [2]; [9]): 1290 µM
"COCCc1ccc(OCC(O)CNC(C)C)cc1 (stereo not drawn) [Metoprolol (MEP), Metoprolol]",74.1,11.1,3.04,19.2,–
"CCN(CC)CCCC(C)Nc1ccnc2cc(Cl)ccc12 (stereo not drawn) [CQ, Chloroquine]",–,–,–,–,Implied number of sites [3]: 1; effect on fibrinogen melting transition peak (52° C.) of the plasma thermogram (human plasma): significant perturbation
"C[CH2][Hg][S]c1ccccc1C(=O)[O-].[Na+] [Thimerosal (TMS), Thimerosal]",339,–,–,–,–
"C=CC1=C(C)/C(=C/c2[nH]c(Cc3[nH]c(/C=C4\NC(=O)C(C)=C4C=C)c(C)c3CCC(=O)O)c(CCC(=O)O)c2C)NC1=O [Bilirubin (BIL), Bilirubin]",0.074,0.33,0.41,0.25,–
"CC(O)CN1CCN(CC(=O)[O-])CCN(CC(=O)[O-])CCN(CC(=O)[O-])CC1.[Gd+3] (stereo not drawn) [Prohance (PRO), gadoteridol]",–,–,–,–,reported HSA binding activity (HSA [1]): not display HSA binding activity
O=C([O-])CN(CCN(CC(=O)[O-])CC(COP(=O)(O)OC1CCC(c2ccccc2)(c2ccccc2)CC1)N(CC(=O)[O-])CC(=O)[O-])CC(=O)O.[Gd+3].[Na+] (stereo not drawn) [Ablavar (AB)],60.4,–,–,–,–
"O=C1OC2(c3ccc(O)cc3Oc3cc(O)ccc32)c2ccccc21 [Fluorescein (FSC), Fluorescein]",212,68,79.8,56.2,–
"O=C([O-])CN1CCN(CC(=O)[O-])CCN(CC(=O)O)CCN(CC(=O)[O-])CC1.[Gd+3] [Dotarem (DOTA), gadoteric acid]",–,–,–,–,reported HSA binding activity (HSA [1]): not have any measurable HSA binding activity; Measured HSA binding (cell spanning the measured KD columns; same in text) (HSA [2]): No Binding Detected; Measured HSA binding (cell spanning the measured KD columns; same in text) (HSA [2]; listed as Dotarem): no binding was observed
